Experimental findings from patent publication US20230364101A1, “DICLOFENAC PRODRUG AND USE OF THE SAME” (Pumont Biotech Co., Ltd., priority 2022, published 2023) are described below.

Converted amounts (≈) assume the structure as drawn.

Usually solubility stands for how much of the substance goes into solution per volume.

The nature of series [1]: Solubility test using potassium phosphate buffer at pH 7.4. In kind it is physicochemical. To be noted: 5 mg prodrug in 10 mL potassium phosphate buffer pH 7.4, 37° C., HPLC-UV 254 nm; for solubility at 24 h: potassium phosphate buffer, 37 °C, pH 7.4, aqueous buffer, thermodynamic from solid, read-out: Solubility after 24 hours. On the procedure: First, a respective one of the diclofenac prodrugs of EX5 to EX8 and EX12 was mixed with a potassium phosphate buffer (including 50 mM potassium phosphate, sodium chloride, and water; pH 7.4) and then placed in a constant temperature oscillator at 37° C. for 24 hours so as to dissolve the diclofenac prodrug, thereby obtaining a test sample. After that, the test sample was filtered through a filter having a pore size of 0.22 μm to obtain a filtrate. Next, the filtrate was mixed with acetonitrile in equal amounts, and then subjected to oscillation and centrifugation performed in sequence. The resultant supernatant fraction was subjected to HPLC with UV detection under a wavelength of 254 nm.

Series [2] in a line: Determination of particle size (D90) after grinding. The series is classed as physicochemical. To be noted: after grinding with mortar and homogenizer in 0.125 wt % Tween 20; initial particle size about 60 μm. The source says:
The solid particles of the diclofenac prodrugs of EX5 and EX8 were subjected to grinding in order to be formulated into a soluble liquid suspension suitable for intraarticular injection. In general, first, the solid particles of diclofenac prodrugs and deionized water were mixed to form a liquid suspension. Next, the liquid suspension was ground using a homogenizer and then subjected to oscillation treatment to obtain a test sample. Then, the test sample was subjected to determination of particle size distribution. Afterwards, the test sample includes solid particles having a size ranging from 20 μm to 30 μm was centrifuged and lyophilized, followed by determination of purity using HLPC. […]
To be specific, 100 mg of the diclofenac prodrug of EX5 having an initial particle size of about 60 μm was manually ground using a mortar, and then mixed with 2.0 mL of an aqueous solution containing 0.125 wt % of Tween 20 and deionized water, so as to obtain a slurry. […] The thus determined average particle size D90 of the diclofenac prodrug of EX5 was 8.4 μm.
Meanwhile, 102 mg of the diclofenac prodrug of EX8 having an initial particle size of about 60 μm was manually ground using a mortar, and then mixed with 2.0 mL of an aqueous solution containing 0.125 wt % of Tween 20 and saline, so as to obtain a slurry. […] The thus determined average particle size D90 of the diclofenac prodrug of EX8 was 18.2 μm.

For `O=C(Cc1ccccc1Nc1c(Cl)cccc1Cl)OCOC(=O)N1CCOCC1` [EX5, (2-(2-((2,6-dichlorophenyl)amino)phenyl)acetoxy)methyl morpholine-4-carboxylate], the “Solubility after 24 hours” value in series [1] (listed as EX5 (crystalline)) was 0.06 µg/mL (≈ 0.137 µM). Besides, in series [2], the “average particle size D90” value worked out at 8.4 μm.

Consider `O=C(Cc1ccccc1Nc1c(Cl)cccc1Cl)OCOC(=O)OCCCO` [EX8, (((3-hydroxypropoxy)carbonyl)oxy)methyl 2-(2-((2,6-dichlorophenyl)amino)phenyl)acetate], for which the solubility at 24 h in series [1] worked out at 28.4 µg/mL (≈ 66.4 µM). Moreover, in series [2], the “average particle size D90” value was found to be 18.2 μm.

As for `O=C(Cc1ccccc1Nc1c(Cl)cccc1Cl)OCOC(=O)N1CCOCC1` [EX5 (amorphous), (2-(2-((2,6-dichlorophenyl)amino)phenyl)acetoxy)methyl morpholine-4-carboxylate], in series [1], the “Solubility after 24 hours” value amounted to 4.24 µg/mL (≈ 9.65 µM).

On to `O=C(Cc1ccccc1Nc1c(Cl)cccc1Cl)OCOC(=O)OCC(O)CO` (stereo not shown) [EX7, (((2,3-dihydroxypropoxy)carbonyl)oxy)methyl 2-(2-((2,6-dichlorophenyl)amino)phenyl)acetate], for which the solubility at 24 h in series [1] amounted to 269 µg/mL (≈ 604 µM).

Take `CC1(C)OCC(COC(=O)OCOC(=O)Cc2ccccc2Nc2c(Cl)cccc2Cl)O1` (stereo not shown) [EX6, ((((2,2-dimethyl-1,3-dioxolan-4-yl)methoxy)carbonyl)oxy)methyl 2-(2-((2,6-dichlorophenyl)amino)phenyl)acetate]: the solubility at 24 h in series [1] worked out at 0.33 µg/mL (≈ 0.681 µM).
